Experimental data from the NIST ThermoML archive (doi:10.1021/je800155q).
Numbers after ± are expanded uncertainties.

Assays:
[1] = molar enthalpy of vaporization or sublimation; conditions: 298.15 K, Calvet Microcalorimeter
[2] = Crystal; DTA

molar enthalpy ([1]; Crystal) | Normal melting temperature [2] | molar enthalpy ([1]; Liquid) | Structure (SMILES)
18.7 ± 0.813 kcal/mol | 68 ± 2 °C | – | CC(C)(C)c1cc(C(C)(C)C)nc(C(C)(C)C)c1 [pyridine, 2,4,6-tris(1,1-dimethylethyl)-]
– | – | 13 ± 0.621 kcal/mol | CC(C)(C)c1ccncc1 [4-(1,1-dimethylethyl)pyridine]
– | – | 13.5 ± 0.574 kcal/mol | CC(C)(C)c1cccc(C(C)(C)C)n1 [2,6-di-tert-butylpyridine]
